According to BindingDB's records for doi:10.1021/jm950369c (University of Arizona, 1996):

Experiment: Inhibition of [3H]c[D-Pen2,p-Cl-Phe4,D-Pen5]enkephalin binding to delta opioid receptor of guinea pig brain plasma membrane homogenates

In order of falling IC50:
1. CC[C@H](C)[C@H](NC(=O)[C@H](CCCNC(=N)N)NC(=O)[C@@H]1CCCCNC(=O)C[C@@H](NC(=O)[C@@H](N)Cc2ccc(O)cc2)C(=O)NCC(=O)N[C@@H](Cc2ccccc2)C(=O)N[C@@H](CC(C)C)C(=O)N1)C(=O)N[C@@H](CCCNC(=N)N)C(=O)N1CCC[C@H]1C(=O)N[C@@H](CCCCN)C(N)=O [Cyclic Lactam Peptide Analogues of Dynorphin A(1-11)-NH2]  910 nM
2. CC[C@H](C)[C@H](NC(=O)[C@H](CCCCN)NC(=O)[C@H](CCCNC(=N)N)NC(=O)[C@H](CC(C)C)NC(=O)[C@H](Cc1ccccc1)NC(=O)[C@@H](CC(=O)O)NC(=O)CNC(=O)[C@@H](N)Cc1ccc(O)cc1)C(=O)N[C@@H](CCCNC(=N)N)C(=O)N1CCC[C@H]1C(=O)N[C@@H](CCCCN)C(N)=O [Cyclic Lactam Peptide Analogues of Dynorphin A(1-11)-NH2]  870 nM
3. CC[C@H](C)[C@H](NC(=O)[C@H](CCCNC(=N)N)NC(=O)[C@@H]1CCCCNC(=O)C[C@H](NC(=O)[C@@H](N)Cc2ccc(O)cc2)C(=O)NCC(=O)N[C@@H](Cc2ccccc2)C(=O)N[C@@H](CC(C)C)C(=O)N1)C(=O)N[C@@H](CCCNC(=N)N)C(=O)N1CCC[C@H]1C(=O)N[C@@H](CCCCN)C(N)=O [Cyclic Lactam Peptide Analogues of Dynorphin A(1-11)-NH2Cyclic Lactam Peptide Analogues of Dynorphin A(1-11)-NH2]  12 nM
